Test results: US20150284683A1, “METHOD, COMBINATION AND/OR COMPOSITION FOR INDUCING CARDIOMYOCYTE DIFFERENTATION” (SINGAPORE HEALTH SERVICES LTD, priority 2012, published 2015)

How the values were obtained:
Format in all cases: cell-based, human
hiPSC C2 cell line = experiment: Embryoid body (EB) cardiac differentiation, beating EBs, hiPSC C2
Experimental: (§1) Human ES cells (H9; Wicell, USA) and iPS cells (MSnviPSNF2 (C2) and MSnviPSNF3 (C3); both described in Mehta et al., 2011) were maintained on 1% matrigel (BD Biosciences, CA, USA) and grown in chemically defined mTeSR1 medium (Stem Cell Technologies, VA, Canada). Differentiated areas (<10%) were manually removed periodically with a scraper and prior to passaging. Pluripotent stem cells were subsequently washed with DMEM-F12 (Invitrogen, CA, USA) and incubated with 1 mg/ml dispase (Stem Cell Technologies, VA, Canada) for 5-7 minutes. Subsequently, cells colonies were washed using DMEM-F12 and carefully cut into small clumps of approximately 50-70 μm in size before being scrapped from the surface of the culture dishes. […]
(§2) Subsequently, addition of different small molecules (components) were carried out at various stages of differentiation, either alone or in combination with at least one other component (FIG. 1): SB 203580 daily from day 2 through to day 8 from EB induction; Wnt modulator IWP4 daily from day 4 through to day 8 from EB induction, CSA daily from day 4 through to day 8 from EB induction, and ROS activator H2O2 on day 8 (15 min prior to plating). […] All EBs were evaluated morphologically under the microscope at 4× magnification for 10-15 seconds. […]

hiPSC C3 cell line = experiment: Embryoid body (EB) cardiac differentiation, beating EBs, hiPSC C3
Experimental: as §1, §2

hESC (H9) cell line = experiment: Embryoid body (EB) cardiac differentiation, beating EBs, hESC H9; settings: SB203580 5 μM day 2 to day 8
Experimental: as §1, §2

H3-Nkx2.5-GFP line [1] = experiment: Spin EB contraction during protocol standardization (Example 2); settings: only 10 uM SB203580; EBs of 2,500 to 7,500 cells
Experimental: Briefly, hiPSC/hESC lines were pre-treated with 10 μM Y27632 (Stem Cell Technologies, VA, Canada) for 4 h before dissociating them to single cells with. Accutase (Stem Cell Technologies, VA, Canada). Cells were aggregated in spin EBs of 5000 cells/EB in AggreWell™ 800 (Stem Cell Technologies, VA, Canada) in media A (mTesR1: DMEM-F12-B27 (1:1) with 4 mg/mL PVA) with Ascorbic acid (284 μM) and BMP4 ([…]) and centrifuged at 300 g for 5 min and incubated overnight. […] […] […] EBs were plated on day 8 in EB2 medium (DMEM-F12 with 2% FBS) on 0.1% gelatin coated dishes. Beating areas were clearly observed between day 10-14 depending on different cell lines. Beating areas were manually dissected out after day 14 of differentiation and utilized for all experiments.
To maintain consistency in differentiation efficiency, an EB based protocol was utilised to recapitulate early cardiac development that hinges on stage-specific activation and inhibition′ of Wnt/β-catenin along with BMP modulation. All initial experiments were performed using H3-Nkx2.5-GFP line to standardize the protocol. Spin EBs of different sizes (1,000, 2,500, 5,000, 7,500 and 10,000 cells/EB) were made and it was observed that EBs of 2,500 to 7,500 cells gave contracting cardiomyocytes by day 14-15 using only 10 uM SB203580 (FIG. 11B; Non-treated), with highest efficiencies with 5,000 cell EBs. Next. […]

H3-Nkx2.5-GFP line [2] = experiment: Real-time PCR gene expression during standardization of differentiation (Example 2); settings: Treated S1+S2+VEGF
Experimental: For real-time reverse-transcription polymerase chain reaction (qRT-PCR) analysis, RNA was isolated with the RNeasy kit (Qiagen GmbH, Hilden, Germany). One μg of total RNA was converted to complementary DNA. by Superscript III first-strand synthesis system (Invitrogen, CA, USA). cDNA template (5 ng) was used from each sample and SYBR green real-time PCR studies were performed using Quantifast kit (Qiagen GmbH, Hilden, Germany) and primer (Supplementary table 1) as per the kit instructions. Samples were cycled with RotorGene Q (Qiagen GmbH, Hilden, Germany) as follows: 5 minutes at 95° C., followed by 40 cycles of 10 seconds at 95° C. and 30 second extension at 60° C. All experiments were performed in triplicates. Relative quantification was calculated according to the ΔΔCt method for quantitative real-time PCR (using an endogenous control gene, GAPDH). For each gene, the expression at a specific day was then normalized by its baseline values. Heatmaps were generated from Ct values using Genesis software.
To maintain consistency in differentiation efficiency, an EB based protocol was utilised to recapitulate early cardiac development that hinges on stage-specific activation and inhibition′ of Wnt/β-catenin along with BMP modulation. All initial experiments were performed using H3-Nkx2.5-GFP line to standardize the protocol. […]

[3] = titration 1, 3, 5, 7 μM with SB203580 5 μM and CSA 3 μg/ml
[4] = SB203580 5 μM day 2-8, without or with CSA 3 μg/ml day 4-8, 21 days

COc1ccccc1-n1c(SCC(=O)Nc2nc3ccc(C)cc3s2)nc2c(c1=O)SCC2 [IWP4, 2-(3,4,6,7-tetrahydro-3-(2-methoxyphenyl)-4-oxothieno[3,2-d]pyrimidin-2-ylthio)-N-(6-methylbenzo[d]thiazol-2-yl)acetamide]
IWP4 concentration at which induction of contracting loci peaked (hiPSC C2 cell line; [3]): 5 µM
IWP4 concentration at which induction of contracting loci peaked (hiPSC C3 cell line; [3]): 5 µM

C[S+]([O-])c1ccc(-c2nc(-c3ccc(F)cc3)c(-c3ccncc3)[nH]2)cc1 (centres unmarked) [SB203580, 4-[4-(4-fluorophenyl)-2-(4-methylsulfinylphenyl)-1H-imidazol-5-yl]pyridine]
cardiac-inducing effect (hiPSC C2 cell line; [4]): no cardiac-inducing effect
day spontaneous beating clusters were first observed (hESC (H9) cell line): 14 days
percentage of total EBs plated found to be beating (hESC (H9) cell line; after 21 days): 16.6%
day by which EBs gave contracting cardiomyocytes (H3-Nkx2.5-GFP line [1]): 14 to 15 days
cardiac-inducing effect (hiPSC C3 cell line; [4]): no cardiac-inducing effect

VEGF
gene expression change (H3-Nkx2.5-GFP line [2]): substantially increased gene expression levels of Wnt11
